Patent US8614238B2, “Cyclopentanecarboxamide derivatives, medicaments containing such compounds and their use” (Boehringer Ingelheim International GmbH, priority 2009, dated 2013)

Tests used:
[1] = biological target: T1, Fatty Acid Synthase (FAS) (Homo sapiens, UniProt P49327); assay: Human FAS Enzyme Assay; format: biochemical; settings: FAS enzyme prepared from HeLa cells; NADPH consumption; read-out: IC50 (potency range)
T1 construct: The FAS enzyme is prepared from HeLa cells; endogenous in cells; host or cells: HeLa cells
Source text: Fatty acid synthase is an enzyme complex that harbours seven enzymatic activities catalysing the reductive synthesis of long chain fatty acids from acetyl CoA and malonyl CoA to palmitate. When acetyl CoA and malonyl CoA are forming palmitate NADPH is consumed forming NADP. Since NADPH is fluorescent but not NADP the reaction can be measured by analysing the decrease in fluorescence.
Acetyl coenzyme A (cat.-no. A-2181) and malonyl coenzyme A (cat.-no. M-4263) are purchased from Sigma. NADPH (cat.-no. 30316) is purchased from Serva. The FAS enzyme is prepared from HeLa cells. All other material is of highest grade commercially available.
In the plates, 10 μl test compound in distilled water/DMSO (final concentration 0.1% DMSO) are mixed with 35 μl of a mixture of NADPH and acetyl CoA in phosphate buffer (f.c. 326 μM and 60 μM, respectively), and 45 μl FAS enzyme diluted in enzyme buffer. The plates are incubated for 60 minutes at 37° C. The reaction is then started by the addition of 10 μl malonyl CoA dissolved in water (200 μM). The decrease of the optical density in the wells is determined at 37° C. at a wavelength of 340 nm over 10 minutes. From these kinetic data, the slope (i.e. Vmax) is calculated and used for the calculation.
20 mM KH2PO4/K2HPO4, 1 mM EDTA, 1 mM DTT, 5% glycerol, pH 7.4
Each assay 96 well microtiter plate contains wells with vehicle controls instead of compound (1% DMSO in water) as reference for non-inhibited enzyme activity and wells without malonyl CoA as controls for non-specific NADPH degradation. The analysis of the data is performed by the calculation of the OD decrease in the presence of the test compound compared to the OD decrease of the test control wells after subtraction of the non-specific background without the malonyl CoA substrate (slope(sample)-slope(sample w/o malonyl CoA). An inhibitor of the FAS enzyme will give values between Control values (complete reaction without substance) and complete inhibition. Reported values will include: IC50; Top(Control: nmol NADPH oxidized/min/mg); Bottom (MaxInh: nmol NADPH oxidized/min/mg); RATIO (log(IC50 substance/IC50 control inhibitor)).

N-42 cells = assay: 14C-acetate incorporation in N-42 cells; format: cell-based
Method: ^14C-Acetat Incorporation in N-42 Cells
30000 cells (N-42), in 24 well plates are incubated with the compound dissolved in 500 μL Krebs-Ringer-buffer for 60 min at 37° C., then incubated with 5 μL 1:10 14C-Acetate dilution (1 000 000 dpm) for 4 hours at 37° C. incubation, then washed with 500 μl PBS. 500 μL chloroform/methanol mix 1:1 and 175 μL sodium hydroxide solution was given in each well. The upper fraction is taken away and the lower fraction is vaporized. 50 μL chloroform/methanol mix 1:1 is again given in every well. 10 μL each are taken and given to scintillation vials with 4 mL Ultima Gold. Each vial is measured for 1 minute in a β-Counter.
Cerulenin, a literature known FAS inhibitor is used to validate the assay.

sebaceous glands = assay: In vivo activity on sebaceous glands in rats; set-up: species or system Wistar rats
Method: In vivo activity of the FAS inhibitors on sebaceous glands is determined as exemplified with the following experiment: Female Wistar rats [Crl:Wi(Han); Charles River, Germany] weighing 200-240 g are conventionally housed in Makrolon type cages at a constant temperature of 22±3° C., on a 12 h light/dark cycle. Food and water are provided ad libitum. The animals (n=7 per group) are orally treated once daily with 3, 10 and 30 mg/kg of compound 1.2 in a suspension with 0.5% Natrosol for seven days. All experimental procedures are conducted according to the German Animal Protection Law. Beginning with day 4 of treatment, at the highest dose effects on skin and coat of the animals could be detected. […] With longer treatment alopecia and cutaneous lesions also developed at the skin of the back. At day seven the animals are euthanized and representative tissue samples of the eye lid, muzzle and back skin are collected into 4% formaldehyde solution for microscopic examination. After trimming, the fixed tissues are processed, embedded in paraffin, sectioned at a thickness of approximately 4 μm and stained with hematoxylin-eosin (H&E). […] This lesion is sometimes accompanied by a slight inflammatory reaction.

[2] = female Wistar rats, highest dose (30 mg/kg orally once daily), beginning with day 4 of treatment

T1 sequence (P49327 whole entry): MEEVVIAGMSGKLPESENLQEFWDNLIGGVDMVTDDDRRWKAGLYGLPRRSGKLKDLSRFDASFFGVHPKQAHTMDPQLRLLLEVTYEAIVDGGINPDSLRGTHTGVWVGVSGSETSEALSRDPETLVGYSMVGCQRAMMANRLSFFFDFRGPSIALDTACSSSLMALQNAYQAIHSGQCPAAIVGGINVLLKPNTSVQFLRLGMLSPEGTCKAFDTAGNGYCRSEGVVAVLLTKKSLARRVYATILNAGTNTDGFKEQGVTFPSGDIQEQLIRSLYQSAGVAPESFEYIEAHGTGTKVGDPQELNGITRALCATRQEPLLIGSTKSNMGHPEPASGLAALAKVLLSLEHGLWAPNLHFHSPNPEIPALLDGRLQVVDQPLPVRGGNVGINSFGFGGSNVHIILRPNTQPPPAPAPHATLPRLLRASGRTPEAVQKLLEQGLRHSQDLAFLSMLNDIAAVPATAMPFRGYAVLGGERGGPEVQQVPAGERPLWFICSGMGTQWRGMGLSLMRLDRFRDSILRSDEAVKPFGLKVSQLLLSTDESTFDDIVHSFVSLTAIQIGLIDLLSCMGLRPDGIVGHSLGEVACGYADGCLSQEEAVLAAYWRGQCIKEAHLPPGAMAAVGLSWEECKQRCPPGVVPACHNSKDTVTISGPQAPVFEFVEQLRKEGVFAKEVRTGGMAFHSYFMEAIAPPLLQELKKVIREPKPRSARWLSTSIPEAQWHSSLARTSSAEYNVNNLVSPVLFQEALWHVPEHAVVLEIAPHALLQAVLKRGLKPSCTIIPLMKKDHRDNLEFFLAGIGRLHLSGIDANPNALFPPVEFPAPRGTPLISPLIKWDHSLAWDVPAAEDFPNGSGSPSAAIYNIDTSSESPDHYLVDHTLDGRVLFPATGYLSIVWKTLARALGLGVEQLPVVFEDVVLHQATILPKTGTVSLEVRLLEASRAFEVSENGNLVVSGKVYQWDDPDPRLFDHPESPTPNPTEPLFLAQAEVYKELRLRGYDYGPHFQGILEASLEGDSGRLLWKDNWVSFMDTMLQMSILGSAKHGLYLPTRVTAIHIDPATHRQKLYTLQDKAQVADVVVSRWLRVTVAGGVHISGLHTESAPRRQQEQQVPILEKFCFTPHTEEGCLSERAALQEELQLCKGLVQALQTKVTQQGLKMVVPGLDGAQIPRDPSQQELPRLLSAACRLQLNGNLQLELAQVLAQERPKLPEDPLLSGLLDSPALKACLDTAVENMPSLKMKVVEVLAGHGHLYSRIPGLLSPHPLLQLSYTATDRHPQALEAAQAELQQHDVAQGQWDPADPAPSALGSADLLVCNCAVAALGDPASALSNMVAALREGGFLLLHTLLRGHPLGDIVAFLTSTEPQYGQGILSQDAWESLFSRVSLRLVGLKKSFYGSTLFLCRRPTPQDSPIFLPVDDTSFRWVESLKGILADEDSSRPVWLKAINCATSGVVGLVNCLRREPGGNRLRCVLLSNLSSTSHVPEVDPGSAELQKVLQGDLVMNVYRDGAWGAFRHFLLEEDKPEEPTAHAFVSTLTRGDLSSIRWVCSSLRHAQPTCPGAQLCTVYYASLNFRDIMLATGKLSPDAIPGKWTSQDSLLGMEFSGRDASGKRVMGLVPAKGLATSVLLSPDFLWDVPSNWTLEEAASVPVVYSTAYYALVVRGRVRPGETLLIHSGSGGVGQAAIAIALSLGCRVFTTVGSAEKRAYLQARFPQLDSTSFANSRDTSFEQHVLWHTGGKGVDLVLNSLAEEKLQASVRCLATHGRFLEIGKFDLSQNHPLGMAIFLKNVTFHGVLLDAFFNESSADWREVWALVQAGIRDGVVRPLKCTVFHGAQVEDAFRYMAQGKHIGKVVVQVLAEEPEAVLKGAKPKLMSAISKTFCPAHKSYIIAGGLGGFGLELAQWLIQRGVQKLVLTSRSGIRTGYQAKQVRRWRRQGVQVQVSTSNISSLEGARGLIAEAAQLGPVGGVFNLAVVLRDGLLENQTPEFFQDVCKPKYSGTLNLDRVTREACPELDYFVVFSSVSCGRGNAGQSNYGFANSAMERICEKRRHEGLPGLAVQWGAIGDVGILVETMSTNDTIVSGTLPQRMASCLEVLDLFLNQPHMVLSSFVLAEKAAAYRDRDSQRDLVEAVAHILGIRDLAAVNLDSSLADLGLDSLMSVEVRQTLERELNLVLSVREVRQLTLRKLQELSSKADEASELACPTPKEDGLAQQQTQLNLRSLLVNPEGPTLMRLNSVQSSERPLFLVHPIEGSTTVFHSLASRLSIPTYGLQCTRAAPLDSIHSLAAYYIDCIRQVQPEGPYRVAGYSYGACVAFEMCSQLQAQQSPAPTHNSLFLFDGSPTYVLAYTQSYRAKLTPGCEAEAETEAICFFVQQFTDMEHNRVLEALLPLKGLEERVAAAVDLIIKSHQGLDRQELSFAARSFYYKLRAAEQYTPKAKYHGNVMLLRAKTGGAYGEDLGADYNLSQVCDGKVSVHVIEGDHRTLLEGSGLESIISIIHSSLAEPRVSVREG

| Compound | IC50 [1] [nM] | other results |
| --- | --- | --- |
| CCC(=O)N[C@H]1CC[C@@H](C(=O)N(C)c2ccc(-c3ccccc3)cc2)C1 [Example 3.1, (1R,3S)-3-Propionylamino-cyclopentanecarboxylic acid N-biphenyl-4-yl-N-methyl-amide] | ≤ 500 | % control 14C acetate incorporation (N-42 cells; compound at 10 μM): 76.8 % control |
| CN(C)CCCCCC(=O)N[C@H]1CC[C@@H](C(=O)N(C)c2ccc(-c3nc4ccccc4[nH]3)cc2)C1 [Example 2.5, (1R,3S)-3-(6-Dimethylamino-hexanoylamino)-cyclopentanecarboxylic acid N-[4′-(1H-benzoimidazol-2 yl)-phenyl]-N-methyl-amide] | 500 to 3000 | – |
| CC(=O)N[C@H]1CC[C@@H](C(=O)N(C)c2ccc(-c3ccccc3)cc2)C1 [Example 3.3, (1R,3S)-3-Acetylamino-cyclopentanecarboxylic acid N-biphenyl-4-yl-N-methyl-amide] | ≤ 500 | – |
| CCNC(=O)N[C@H]1CC[C@@H](C(=O)N(C)c2ccc(-c3nc4ccccc4[nH]3)cc2)C1 [Example 2.4, (1R,3S)-3-(3-Ethyl-ureido)-cyclopentanecarboxylic acid N-[4′-(1H-benzoimidazol-2-yl)-phenyl]-N-methyl-amide] | ≤ 500 | – |
| CCNC(=O)N[C@H]1CC[C@@H](C(=O)N(C)c2ccc(-c3nc4ccccc4n3C)cc2)C1 [Example 4.1, (1R,3S)-3-(3-Ethyl-ureido)-cyclopentanecarboxylic acid N-methyl-N-[4-(1-methyl-1H-benzoimidazol-2-yl)-phenyl]-amide] | 500 to 3000 | – |
| COCC(=O)N[C@H]1CC[C@@H](C(=O)N(C)c2ccc(-c3nc4ccccc4o3)cc2)C1 [Example 1.5, (1R,3S)-3-(2-Methoxy-acetylamino)-cyclopentanecarboxylic acid N-(4-benzooxazol-2-yl-phenyl)-N-methyl-amide] | 500 to 3000 | – |
| CCC(=O)N[C@H]1CC[C@@H](C(=O)N(C)c2ccc(-c3nc4ccccc4n3C)cc2)C1 [Example 5.1, (1R,3S)-3-Propionylamino-cyclopentanecarboxylic acid N-methyl-N-[4-(1-methyl-1H-benzoimidazol-2-yl)-phenyl]-amide] | ≤ 500 | % control 14C acetate incorporation (N-42 cells; compound at 10 μM): 85.7 % control |
| CCC(=O)N[C@H]1CC[C@@H](C(=O)N(C)c2ccc(-c3cn4ccccc4n3)cc2)C1 [Example 5.2, (1R,3S)-3-Propionylamino-cyclopentanecarboxylic acid N-[4-(imidazo[1,2-a]pyridin-2-yl)-phenyl]-N-methyl-amide] | 500 to 3000 | – |
| CCNC(=O)N[C@H]1CC[C@@H](C(=O)N(C)c2ccc(-c3nc4ccccc4o3)cc2)C1 [Example 1.1, (1R,3S)-3-(3-Ethyl-ureido)-cyclopentanecarboxylic acid N-(4-benzooxazol-2-yl-phenyl)-N-methyl-amide] | 500 to 3000 | – |
| CCC(=O)N[C@H]1CC[C@@H](C(=O)N(C)c2ccc(-c3nc4ccccc4o3)cc2)C1 [Example 1.2, (1R,3S)-3-Propionylamino-cyclopentanecarboxylic acid N-(4-benzooxazol-2-yl-phenyl)-N-methyl-amide] | ≤ 500 | % control 14C acetate incorporation (N-42 cells; compound at 10 μM): 64.1 % control; microscopic examination of skin (eye lid, muzzle, back skin) (sebaceous glands; female Wistar rats, 3, 10 and 30 mg/kg orally once daily for seven days, all dose groups): treatment-related diffuse atrophy of sebaceous glands of the skin; effects on skin and coat of the animals (sebaceous glands; [2]): progressive cranial alopecia; skin of the mouth and eye lid (sebaceous glands; [2]): reddened and swollen |
| CC(C)C(=O)N[C@H]1CC[C@@H](C(=O)N(C)c2ccc(-c3nc4ccccc4[nH]3)cc2)C1 [Example 2.3, (1R,3S)-3-Isobutyrylamino-cyclopentanecarboxylic acid N-[4′-(1H-benzoimidazol-2-yl)-phenyl]-N-methyl-amide] | 500 to 3000 | – |
| CCNC(=O)N[C@H]1CC[C@@H](C(=O)N(C)c2ccc(-c3ccccc3)cc2)C1 [Example 3.4, (1R,3S)-3-(3-Ethyl-ureido)-cyclopentanecarboxylic acid N-biphenyl-4-yl-N-methyl-amide] | 500 to 3000 | – |
| CC(C)C(=O)N[C@H]1CC[C@@H](C(=O)N(C)c2ccc(-c3ccccc3)cc2)C1 [Example 3.2, (1R,3S)-3-Isobutyrylamino-cyclopentanecarboxylic acid N-biphenyl-4-yl-N-methyl-amide] | ≤ 500 | – |
| CCC(=O)N[C@H]1CC[C@@H](C(=O)N(C)c2ccc(-c3nc4ccccc4[nH]3)cc2)C1 [Example 2.1, (1R,3S)-3-Propionylamino-cyclopentanecarboxylic acid N-[4′-(1H-benzoimidazol-2-yl)-phenyl]-N-methyl-amide] | ≤ 500 | % control 14C acetate incorporation (N-42 cells; compound at 10 μM): 80.8 % control |
| CN(C)CCCCCC(=O)N[C@H]1CC[C@@H](C(=O)N(C)c2ccc(-c3nc4ccccc4o3)cc2)C1 [Example 1.4, (1R,3S)-3-(6-Dimethylamino-hexanoylamino)-cyclopentanecarboxylic acid N-(4-benzooxazol-2-yl-phenyl)-N-methyl-amide] | 500 to 3000 | – |
| CC(=O)N[C@H]1CC[C@@H](C(=O)N(C)c2ccc(-c3nc4ccccc4[nH]3)cc2)C1 [Example 2.2, (1R,3S)-3-Acetylamino-cyclopentanecarboxylic acid N-[4′-(1H-benzoimidazol-2-yl)-phenyl]-N-methyl-amide] | 500 to 3000 | – |
| CN(C)C(=O)N[C@H]1CC[C@@H](C(=O)N(C)c2ccc(-c3nc4ccccc4o3)cc2)C1 [Example 1.7, (1R,3S)-3-(3,3-Dimethyl-ureideo)-cyclopentanecarboxylic acid N-(4-benzooxazol-2-yl-phenyl)-N-methyl-amide] | ≤ 500 | – |
| CCCC(=O)N[C@H]1CC[C@@H](C(=O)N(C)c2ccc(-c3nc4ccccc4o3)cc2)C1 [Example 1.6, (1R,3S)-3-Butyrylamino-cyclopentanecarboxylic acid N-(4-benzooxazol-2-yl-phenyl)-N-methyl-amide] | ≤ 500 | % control 14C acetate incorporation (N-42 cells; compound at 10 μM): 81.0 % control |
| CC(=O)N[C@H]1CC[C@@H](C(=O)N(C)c2ccc(-c3nc4ccccc4o3)cc2)C1 [Example 1.3, (1R,3S)-3-Acetylamino-cyclopentanecarboxylic acid N-(4-benzooxazol-2-yl-phenyl)-N-methyl-amide] | ≤ 500 | % control 14C acetate incorporation (N-42 cells; compound at 10 μM): 81.7 % control |
| CN(C)CCCCCC(=O)N[C@H]1CC[C@@H](C(=O)N(C)c2ccc(-c3nc4ccccc4n3C)cc2)C1 [Example 4.2, (1R,3S)-3-(6-Dimethylamino-hexanoylamino)-cyclopentanecarboxylic acid N-methyl-N-[4-(1-methyl-1H-benzoimidazol-2-yl)-phenyl]-amide] | 500 to 3000 | – |
| C/C=C/C/C=C/CCC(=O)[C@H]1O[C@H]1C(N)=O [Cerulenin, reference compound] | – | % control 14C acetate incorporation (N-42 cells; compound at 100 μM): 73.3 % control |
| CN(C(=O)[C@@H]1CC[C@H](NC(=O)C(F)F)C1)c1ccc(-c2nc3ccccc3o2)cc1 [Example 1.8, (1R,3S)-3-(2,2-Difluoro-acetylamino)-cyclopentanecarboxylic acid N-(4-benzooxazol-2-yl-phenyl)-N-methyl-amide] | ≤ 500 | – |
| CN(C)CCCCCC(=O)N[C@H]1CC[C@@H](C(=O)N(C)c2ccc(-c3ccccc3)cc2)C1 [Example 3.5, (1R,3S)-3-(6-Dimethylamino-hexanoylamino)-cyclopentanecarboxylic acid N-biphenyl-4-yl-N-methyl-amide] | 500 to 3000 | – |
